What was measured:
KCHSC [1] = test: Pre-emergence action against KCHSC, 1280 g/ha; assay type: in vivo, Bassia scoparia; conditions: scored visually after about 3 weeks vs untreated controls (100% = plants have died)
Excerpt: 1. Pre-Emergence Herbicidal Effect and Crop Plant Compatibility a) Seeds of mono- and dicotyledonous weed plants are placed in plastic pots in sandy loam soil (doubly sown with one species each of mono- or dicotyledonous weed plants per pot) and covered with soil. The compounds of the invention, formulated in the form of wettable powders (WP) or as emulsion concentrates (EC), are then applied onto the surface of the covering soil as aqueous suspension or emulsion with addition of 0.5% additive at a water application rate equivalent to 600 litres per hectare. After the treatment, the pots are placed in a greenhouse and kept under good growth conditions for the trial plants. After about 3 weeks, the effect of the preparations is scored visually in comparison with untreated controls as percentages. For example, 100% activity=the plants have died, 0% activity=like control plants. 1. Pre-Emergence Effectiveness Tables 1 to 12 below show the effects of selected compounds of the general formula (I) according to Tables 1 and 2 on various harmful plants and at an application rate corresponding to 1280 g/ha, which were obtained by the experimental procedure mentioned above.

DIGSA [2] = test: Pre-emergence action against DIGSA, 1280 g/ha; assay type: in vivo, Digitaria sanguinalis; conditions: visual scoring after about 3 weeks vs untreated controls, 100% = plants have died, 0% = like control plants
Procedure, shortened: (§1)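 Soil-surface application after sowing, before emergence: WP or EC formulations in water with 0.5% additive, 600 litres per hectare, onto sandy loam pots. Damage rated visually in % relative to untreated plants after roughly 3 weeks in a greenhouse.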

ALOMY [3] = test: Pre-emergence action against ALOMY, 1280 g/ha; assay type: in vivo, Alopecurus myosuroides; conditions: visual scoring after about 3 weeks vs untreated controls, 100% = plants have died, 0% = like control plants
Procedure, shortened: as §1

AMARE [4] = test: Pre-emergence action against AMARE, 1280 g/ha; assay type: in vivo, Amaranthus retroflexus; conditions: scored visually after about 3 weeks vs untreated controls (100% = plants have died)
Procedure, shortened: as §1

KCHSC [5] = test: Post-emergence action against KCHSC, 1.28 kg/ha; assay type: in vivo, Bassia scoparia; conditions: dosage 1280 g/ha, visual rating about 3 weeks after treatment vs untreated controls (100% = plants died)
Protocol: • a) Seeds of mono- and dicotyledonous weed plants are placed in plastic pots in sandy loam soil (twin sowing with one species each of mono- or dicotyledonous weed plants per pot), covered with soil and cultivated in a greenhouse under controlled growth conditions. 2 to 3 weeks after sowing, the test plants are treated at the one-leaf stage. The compounds of the invention, formulated in the form of wettable powders (WP) or as emulsion concentrates (EC), are applied to the green parts of the plants as aqueous suspension or emulsion with addition of 0.5% additive at a water application rate equivalent to 600 litres per hectare. After the test plants have been kept in the greenhouse under optimum growth conditions for about 3 weeks, the activity of the preparations is rated visually in comparison to untreated controls. For example, 100% activity=the plants have died, 0% activity=like control plants. As shown by the results, compounds of the general formula (I) of the invention, in post-emergence treatment, have very good herbicidal efficacy (90% to 100% herbicidal action) against harmful plants such as Abutilon theophrasti, Digitaria sanguinalis, Echinochloa crus-galli, Matricaria inodora, Poa annua, at an application rate of 1.28 kg of active substance per hectare.

SETVI = test: Pre-emergence action against SETVI, 1280 g/ha; assay type: in vivo, Setaria viridis; conditions: visual scoring after about 3 weeks vs untreated controls, 100% = plants have died, 0% = like control plants
Procedure, shortened: as §1

VERPE [6] = test: Pre-emergence action against VERPE, 1280 g/ha; assay type: in vivo, Veronica persica; conditions: scored visually after about 3 weeks vs untreated controls (100% = plants have died)
Procedure, shortened: as §1

POAAN [7] = test: Pre-emergence action against POAAN, 1280 g/ha; assay type: in vivo, Poa annua; conditions: visual scoring after about 3 weeks vs untreated controls, 100% = plants have died, 0% = like control plants
Procedure, shortened: as §1

VERPE [8] = test: Post-emergence action against VERPE, 1.28 kg/ha; assay type: in vivo, Veronica persica; conditions: dosage 1280 g/ha, visual rating about 3 weeks after treatment vs untreated controls (100% = plants died)
Procedure, shortened: (§2)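 Greenhouse-grown weeds (sandy loam, twin-sown pots) were treated 2–3 weeks post-sowing at one leaf. The spray was an aqueous WP/EC preparation plus 0.5% additive, applied at 600 L/ha. Scoring was visual at ~3 weeks, 0–100% versus untreated controls.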

MATIN [9] = test: Post-emergence action against MATIN, 1.28 kg/ha; assay type: in vivo, Tripleurospermum inodorum (Matricaria inodora); conditions: dosage 1280 g/ha, visual rating about 3 weeks after treatment vs untreated controls (100% = plants died)
Procedure, shortened: as §2

POAAN [10] = test: Post-emergence action against POAAN, 1.28 kg/ha; assay type: in vivo, Poa annua; conditions: dosage 1280 g/ha, visual rating about 3 weeks after treatment vs untreated controls
Procedure, shortened: as §2

STEME [11] = test: Pre-emergence action against STEME, 1280 g/ha; assay type: in vivo, Stellaria media; conditions: scored visually after about 3 weeks vs untreated controls (100% = plants have died)
Procedure, shortened: as §1

MATIN [12] = test: Pre-emergence action against MATIN, 1280 g/ha; assay type: in vivo, Tripleurospermum inodorum (Matricaria inodora); conditions: scored visually after about 3 weeks vs untreated controls (100% = plants have died)
Procedure, shortened: as §1

ALOMY [13] = test: Post-emergence action against ALOMY, 1.28 kg/ha; assay type: in vivo, Alopecurus myosuroides; conditions: dosage 1280 g/ha, visual rating about 3 weeks after treatment vs untreated controls
Procedure, shortened: as §2

DIGSA [14] = test: Post-emergence action against DIGSA, 1.28 kg/ha; assay type: in vivo, Digitaria sanguinalis; conditions: dosage 1280 g/ha, visual rating about 3 weeks after treatment vs untreated controls
Procedure, shortened: as §2

ECHCG [15] = test: Pre-emergence action against ECHCG, 1280 g/ha; assay type: in vivo, Echinochloa crus-galli; conditions: visual scoring after about 3 weeks vs untreated controls, 100% = plants have died, 0% = like control plants
Procedure, shortened: as §1

LOLRI [16] = test: Pre-emergence action against LOLRI, 1280 g/ha; assay type: in vivo, Lolium rigidum; conditions: visual scoring after about 3 weeks vs untreated controls, 100% = plants have died, 0% = like control plants
Procedure, shortened: as §1

ECHCG [17] = test: Post-emergence action against ECHCG, 1.28 kg/ha; assay type: in vivo, Echinochloa crus-galli; conditions: dosage 1280 g/ha, visual rating about 3 weeks after treatment vs untreated controls
Procedure, shortened: as §2

STEME [18] = test: Post-emergence action against STEME, 1.28 kg/ha; assay type: in vivo, Stellaria media; conditions: dosage 1280 g/ha, visual rating about 3 weeks after treatment vs untreated controls (100% = plants died)
Procedure, shortened: as §2

ABUTH = test: Post-emergence action against ABUTH, 1.28 kg/ha; assay type: in vivo, Abutilon theophrasti; conditions: dosage 1280 g/ha, visual rating about 3 weeks after treatment vs untreated controls (100% = plants died)
Procedure, shortened: as §2

AMARE [19] = test: Post-emergence action against AMARE, 1.28 kg/ha; assay type: in vivo, Amaranthus retroflexus; conditions: dosage 1280 g/ha, visual rating about 3 weeks after treatment vs untreated controls (100% = plants died)
Procedure, shortened: as §2

LOLRI [20] = test: Post-emergence action against LOLRI, 1.28 kg/ha; assay type: in vivo, Lolium rigidum; conditions: dosage 1280 g/ha, visual rating about 3 weeks after treatment vs untreated controls
Procedure, shortened: as §2

| SMILES | Pre-emergence action against KCHSC (KCHSC [1]) | Pre-emergence action against DIGSA (DIGSA [2]) | Pre-emergence action against AMARE (AMARE [4]) | Post-emergence action against KCHSC (KCHSC [5]) | Pre-emergence action against SETVI (SETVI) | Pre-emergence action against VERPE (VERPE [6]) | Pre-emergence action against POAAN (POAAN [7]) | Post-emergence action against VERPE (VERPE [8]) | Post-emergence action against MATIN (MATIN [9]) | Post-emergence action against POAAN (POAAN [10]) | Pre-emergence action against STEME (STEME [11]) | Pre-emergence action against MATIN (MATIN [12]) | Post-emergence action against ALOMY (ALOMY [13]) | Post-emergence action against DIGSA (DIGSA [14]) | Pre-emergence action against ECHCG (ECHCG [15]) | Pre-emergence action against LOLRI (LOLRI [16]) | Post-emergence action against ECHCG (ECHCG [17]) | Post-emergence action against STEME (STEME [18]) | Post-emergence action against ABUTH (ABUTH) | Post-emergence action against AMARE (AMARE [19]) | other results |
| --- | --- | --- | --- | --- | --- | --- | --- | --- | --- | --- | --- | --- | --- | --- | --- | --- | --- | --- | --- | --- | --- |
| CON(C)C(=O)COc1nn(-c2ccc(F)cc2F)c(-c2ccc(F)nc2)c1Br [Example X-025] | 100% | 100% | 100% | 90% | 100% | 100% | 100% | 100% | 90% | 100% | 100% | 100% | 100% | 100% | 100% | 100% | 100% | – | – | – | Pre-emergence action against ALOMY (ALOMY [3]): 100% |
| O=C(O)COc1nn(-c2ccccc2F)c(-c2ccnnc2)c1Br [IV-002] | 90% | 90% | 100% | 90% | 100% | – | 100% | 90% | 90% | 100% | 100% | 100% | – | 100% | 100% | – | – | 100% | 90% | 100% | – |
| COC(=O)[C@H](C)Oc1nn(-c2ccccc2F)c(-c2cncnc2)c1Br [VI-008] | 90% | 100% | 100% | 90% | 100% | – | 100% | – | 90% | 100% | 100% | 90% | – | 100% | – | 100% | – | 90% | 90% | – | – |
| CCOC(=O)COc1nn(-c2ccccc2C)c(-c2ccc(F)nc2)c1I [VII-058] | 90% | 100% | 100% | – | 100% | 100% | 100% | 90% | 90% | 100% | 100% | 100% | 100% | 100% | 100% | 100% | 100% | 90% | 90% | 100% | Pre-emergence action against ALOMY (ALOMY [3]): 90%; Post-emergence action against LOLRI (LOLRI [20]): 100% |
| O=C(O)COc1nn(-c2ccc(F)cc2)c(-c2ccc(F)nc2)c1C(F)(F)F [VII-125] | 100% | 100% | 90% | 90% | 100% | 90% | 100% | 100% | 90% | 100% | 90% | 90% | 100% | 100% | 100% | 100% | 90% | 90% | – | 90% | – |
